Measured values from ChEMBL document CHEMBL3813650, “GSK114: A selective inhibitor for elucidating the biological role of TNNI3K” (Bioorg Med Chem Lett, 2016).

System: not listed separately
Test: Cmax in Sprague-Dawley rat at 2 mg/kg, po administered as gastric bolus by LC/MS/MS analysis
Type: ADME, organism-based
Set-up: dose 2 mg/kg, route oral
Details: in vivo
CNS(=O)(=O)c1ccc(N(C)C)c(Nc2ncnc3cc(OC)c(OC)cc23)c1 gave a Cmax of 130 ng/mL.

System: not listed separately
Test: Fraction unbound in Sprague-Dawley rat plasma at 2 mg/kg, po administered as gastric bolus by LC/MS/MS analysis
Type: ADME, organism-based
Details: not given
In the case of CNS(=O)(=O)c1ccc(N(C)C)c(Nc2ncnc3cc(OC)c(OC)cc23)c1, the fraction unbound is reported as 0.202.

System: Rattus norvegicus
Test: Dose normalized AUC in Sprague-Dawley rat at 2 mg/kg, po administered as gastric bolus by LC/MS/MS analysis
Type: ADME, organism-based
Details: in vivo
CNS(=O)(=O)c1ccc(N(C)C)c(Nc2ncnc3[nH]ccc23)c1 gave an AUC/dose of 0.59 kg·h/L.
Work on CNS(=O)(=O)c1ccc(OCC(F)(F)F)c(Nc2ncnc3cc(OC)cc(OC)c23)c1 yielded an AUC/dose of 1.4 kg·h/L.
With CNS(=O)(=O)c1ccc(OCC(F)(F)F)c(Nc2ncnc3cc(OCCCN4CCOCC4)ccc23)c1 the AUC/dose was 0 kg·h/L.
CNS(=O)(=O)c1ccc(N(C)C)c(Nc2ncnc3ccn(C)c23)c1 showed an AUC/dose of 0.02 kg·h/L.
Molecule CNS(=O)(=O)c1ccc(OCC(F)(F)F)c(Nc2ncnc3cc(OC)c(OC)c(OC)c23)c1 has an AUC/dose of 0.24 kg·h/L.
Molecule CNS(=O)(=O)c1ccc(OCC(F)(F)F)c(Nc2ncnc3cc(OCCCOC)ccc23)c1 has an AUC/dose of 0.07 kg·h/L.
With CNS(=O)(=O)c1ccc(OCC(F)(F)F)c(Nc2ncnc3cc(OC)c(OC)cc23)c1 the AUC/dose was 1.9 kg·h/L.
In the case of CNS(=O)(=O)c1ccc(N(C)C)c(Nc2ncnc3cc(OC)cc(OC)c23)c1, the AUC/dose is reported as 0.04 kg·h/L.
Work on CNS(=O)(=O)c1ccc(N(C)C)c(Nc2ncnc3cc(OCCCOC)ccc23)c1 yielded an AUC/dose of 0.03 kg·h/L.
CNS(=O)(=O)c1ccc(N(C)C)c(Nc2ncnc3cc(OCCCN4CCOCC4)ccc23)c1 gave an AUC/dose of 0.02 kg·h/L.
With CCOc1cc2ncnc(Nc3cc(S(=O)(=O)NC)ccc3OCC(F)(F)F)c2cc1OC the AUC/dose was 1.7 kg·h/L.
Work on CNS(=O)(=O)c1ccc(N(C)C)c(Nc2ncnc3cc(OC)c(OC)cc23)c1 yielded an AUC/dose of 0.18 kg·h/L.
In the case of CNS(=O)(=O)c1ccc(N(C)C)c(Nc2ncnc3cc[nH]c23)c1, the AUC/dose is reported as 0.01 kg·h/L.

System: not listed separately
Test: Half life in Sprague-Dawley rat at 2 mg/kg, po administered as gastric bolus by LC/MS/MS analysis
Type: ADME, organism-based
Details: in vivo
Molecule CNS(=O)(=O)c1ccc(N(C)C)c(Nc2ncnc3cc(OC)c(OC)cc23)c1 has a half-life of 3.6 h.

Molecular target: Serine/threonine-protein kinase B-raf (Homo sapiens, UniProt P15056, V600E)
Sequence (P15056 2-766 V600E limits assumed): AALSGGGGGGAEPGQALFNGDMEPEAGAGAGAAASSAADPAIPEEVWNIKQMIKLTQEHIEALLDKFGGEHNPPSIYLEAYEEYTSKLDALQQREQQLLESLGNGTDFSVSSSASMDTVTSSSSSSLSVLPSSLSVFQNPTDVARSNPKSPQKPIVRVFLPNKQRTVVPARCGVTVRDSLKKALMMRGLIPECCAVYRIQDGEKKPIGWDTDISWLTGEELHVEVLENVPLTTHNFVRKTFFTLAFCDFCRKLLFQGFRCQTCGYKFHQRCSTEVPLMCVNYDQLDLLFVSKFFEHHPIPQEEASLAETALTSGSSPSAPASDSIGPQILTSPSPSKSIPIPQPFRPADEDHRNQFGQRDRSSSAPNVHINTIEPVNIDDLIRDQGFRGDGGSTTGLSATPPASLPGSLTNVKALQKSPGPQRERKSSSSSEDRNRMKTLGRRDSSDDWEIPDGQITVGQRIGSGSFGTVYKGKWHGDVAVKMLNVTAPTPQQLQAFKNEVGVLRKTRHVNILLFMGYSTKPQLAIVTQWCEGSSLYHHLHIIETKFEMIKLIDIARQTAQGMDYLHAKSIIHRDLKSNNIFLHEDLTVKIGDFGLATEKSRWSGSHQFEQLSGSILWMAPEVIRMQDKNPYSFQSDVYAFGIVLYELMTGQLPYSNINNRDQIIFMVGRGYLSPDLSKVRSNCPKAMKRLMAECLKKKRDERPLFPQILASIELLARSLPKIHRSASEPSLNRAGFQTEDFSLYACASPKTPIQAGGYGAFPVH
Test: Inhibition of full-length His6-tagged BRAF V600E mutant (2 to 766 residues) (unknown origin) expressed in baculovirus system by B-Raf accelerated MEK ATPase assay
Details: not given
CNS(=O)(=O)c1ccc(N(C)C)c(Nc2ncnc3ccc(OC)cc23)c1 showed an IC50 of 1000 nM.
With CNc1ccc2c(Nc3cc(S(=O)(=O)NC)ccc3N(C)C)ncnc2c1 the IC50 was 10000 nM.
CNc1ccc2ncnc(Nc3cc(S(=O)(=O)NC)ccc3N(C)C)c2c1 gave an IC50 of 1000 nM.
Molecule CNS(=O)(=O)c1ccc(OCC(F)(F)F)c(Nc2ncnc3cc(OC)cc(OC)c23)c1 has an IC50 of 50 nM.
Molecule CNS(=O)(=O)c1ccc(OCC(F)(F)F)c(Nc2ncnc3cc(OCCCN4CCOCC4)ccc23)c1 has an IC50 of 1300 nM.
CNS(=O)(=O)c1ccc(N(C)C)c(Nc2ncnc3ccn(C)c23)c1 showed an IC50 of 130 nM.
In the case of CNS(=O)(=O)c1ccc(OCC(F)(F)F)c(Nc2ncnc3cc(OC)c(OC)c(OC)c23)c1, the IC50 is reported as 79 nM.
CNS(=O)(=O)c1ccc(N(C)C)c(Nc2ncnc3ccc(N)cc23)c1 gave an IC50 of 630 nM.
CNS(=O)(=O)c1ccc(N(C)C)c(Nc2ncnc3ccccc23)c1 gave an IC50 of 250 nM.
CNS(=O)(=O)c1ccc(OCC(F)(F)F)c(Nc2ncnc3cc(OCCCOC)ccc23)c1 showed an IC50 of 160 nM.
With CNS(=O)(=O)c1ccc(N(C)C)c(Nc2ncnc3ccsc23)c1 the IC50 was 1000 nM.
Work on CNS(=O)(=O)c1ccc(OCC(F)(F)F)c(Nc2ncnc3cc(OC)c(OC)cc23)c1 yielded an IC50 of 130 nM.
CNS(=O)(=O)c1ccc(OCC(F)(F)F)c(Nc2ncnc3cc(OC(C)C)c(OC)cc23)c1 gave an IC50 of 32000 nM.
Work on CNS(=O)(=O)c1ccc(N(C)C)c(Nc2ncnc3cc(N)ccc23)c1 yielded an IC50 of 4000 nM.
CNS(=O)(=O)c1ccc(N2CCOCC2)c(Nc2ncnc3[nH]cc(Cl)c23)c1 showed an IC50 of 0.6 nM.
CNS(=O)(=O)c1ccc(N(C)C)c(Nc2ncnc3cc(OC)cc(OC)c23)c1 gave an IC50 of 79 nM.
Molecule CNS(=O)(=O)c1ccc(N(C)C)c(Nc2ncnc3cc(OCCCOC)ccc23)c1 has an IC50 of 800 nM.
Molecule CNS(=O)(=O)c1ccc(N(C)C)c(Nc2ncnc3cc(OCCCN4CCOCC4)ccc23)c1 has an IC50 of 2500 nM.
CCOc1cc2ncnc(Nc3cc(S(=O)(=O)NC)ccc3OCC(F)(F)F)c2cc1OC gave an IC50 of 100 nM.
With CNS(=O)(=O)c1ccc(N(C)C)c(Nc2ncnc3cc(OC)c(OC)cc23)c1 the IC50 was 1000 nM.
For CNS(=O)(=O)c1ccc(N(C)C)c(Nc2ncnc3cc[nH]c23)c1, the IC50 was 250 nM.

Molecular target: T1, Serine/threonine-protein kinase TNNI3K (Homo sapiens, UniProt Q59H18)
T1 sequence (Q59H18 whole entry): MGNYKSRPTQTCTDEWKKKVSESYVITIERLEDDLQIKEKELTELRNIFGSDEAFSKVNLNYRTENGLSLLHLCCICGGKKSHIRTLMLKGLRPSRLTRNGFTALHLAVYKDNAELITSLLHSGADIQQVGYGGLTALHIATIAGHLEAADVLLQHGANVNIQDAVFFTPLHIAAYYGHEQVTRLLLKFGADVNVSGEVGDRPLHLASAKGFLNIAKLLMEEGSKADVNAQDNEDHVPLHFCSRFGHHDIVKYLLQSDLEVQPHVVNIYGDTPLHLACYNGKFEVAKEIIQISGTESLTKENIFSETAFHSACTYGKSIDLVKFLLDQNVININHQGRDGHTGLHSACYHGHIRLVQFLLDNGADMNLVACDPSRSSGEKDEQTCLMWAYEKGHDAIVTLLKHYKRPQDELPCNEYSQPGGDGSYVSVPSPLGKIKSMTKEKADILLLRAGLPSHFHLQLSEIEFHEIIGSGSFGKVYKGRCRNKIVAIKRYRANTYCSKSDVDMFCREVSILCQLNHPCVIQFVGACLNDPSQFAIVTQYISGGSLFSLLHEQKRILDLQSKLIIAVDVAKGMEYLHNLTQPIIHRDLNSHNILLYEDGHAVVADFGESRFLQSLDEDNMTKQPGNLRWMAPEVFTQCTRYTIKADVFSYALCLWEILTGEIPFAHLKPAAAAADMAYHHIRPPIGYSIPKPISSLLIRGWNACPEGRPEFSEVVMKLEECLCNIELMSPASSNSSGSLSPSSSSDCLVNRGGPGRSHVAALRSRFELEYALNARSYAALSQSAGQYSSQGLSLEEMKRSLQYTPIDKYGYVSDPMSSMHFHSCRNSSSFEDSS
Test: Displacement of 5-({[2-({[3-({4-[(5-hydroxy-2-methylphenyl)amino]-2-pyrimidinyl}amino)phenyl]carbonyl}amino)-ethyl]amino}carbonyl)-2-(6-hydroxy-3-oxo-3H-xanthen-9-yl)benzoic acid from full length human TNNI3K expressed in baculovirus system incubated for 60 mins by fluorescence polarization assay
Details: not given
For CNS(=O)(=O)c1ccc(N(C)C)c(Nc2ncnc3ccc(OC)cc23)c1, the IC50 was 79 nM.
Molecule CNc1ccc2c(Nc3cc(S(=O)(=O)NC)ccc3N(C)C)ncnc2c1 has an IC50 of 40 nM.
In the case of CNc1ccc2ncnc(Nc3cc(S(=O)(=O)NC)ccc3N(C)C)c2c1, the IC50 is reported as 50 nM.
For CNS(=O)(=O)c1ccc(OCC(F)(F)F)c(Nc2ncnc3cc(OC)cc(OC)c23)c1, the IC50 was < 10 nM.
With CNS(=O)(=O)c1ccc(OCC(F)(F)F)c(Nc2ncnc3cc(OCCCN4CCOCC4)ccc23)c1 the IC50 was 13 nM.
For CNS(=O)(=O)c1ccc(N(C)C)c(Nc2ncnc3ccn(C)c23)c1, the IC50 was 16 nM.
In the case of CNS(=O)(=O)c1ccc(OCC(F)(F)F)c(Nc2ncnc3cc(OC)c(OC)c(OC)c23)c1, the IC50 is reported as < 10 nM.
In the case of CNS(=O)(=O)c1ccc(N(C)C)c(Nc2ncnc3ccc(N)cc23)c1, the IC50 is reported as 32 nM.
CNS(=O)(=O)c1ccc(N(C)C)c(Nc2ncnc3ccccc23)c1 showed an IC50 of 200 nM.
CNS(=O)(=O)c1ccc(OCC(F)(F)F)c(Nc2ncnc3cc(OCCCOC)ccc23)c1 gave an IC50 of 25 nM.
In the case of CNS(=O)(=O)c1ccc(N(C)C)c(Nc2ncnc3ccsc23)c1, the IC50 is reported as 200 nM.
With CNS(=O)(=O)c1ccc(OCC(F)(F)F)c(Nc2ncnc3cc(OC)c(OC)cc23)c1 the IC50 was 25 nM.
Work on CNS(=O)(=O)c1ccc(OCC(F)(F)F)c(Nc2ncnc3cc(OC(C)C)c(OC)cc23)c1 yielded an IC50 of 130 nM.
Work on CNS(=O)(=O)c1ccc(N(C)C)c(Nc2ncnc3cc(N)ccc23)c1 yielded an IC50 of 63 nM.
With CNS(=O)(=O)c1ccc(N2CCOCC2)c(Nc2ncnc3[nH]cc(Cl)c23)c1 the IC50 was < 10 nM.
In the case of CNS(=O)(=O)c1ccc(N(C)C)c(Nc2ncnc3cc(OC)cc(OC)c23)c1, the IC50 is reported as < 10 nM.
For CNS(=O)(=O)c1ccc(N(C)C)c(Nc2ncnc3cc(OCCCOC)ccc23)c1, the IC50 was < 10 nM.
With CNS(=O)(=O)c1ccc(N(C)C)c(Nc2ncnc3cc(OCCCN4CCOCC4)ccc23)c1 the IC50 was < 10 nM.
With CCOc1cc2ncnc(Nc3cc(S(=O)(=O)NC)ccc3OCC(F)(F)F)c2cc1OC the IC50 was 13 nM.
In the case of CNS(=O)(=O)c1ccc(N(C)C)c(Nc2ncnc3cc(OC)c(OC)cc23)c1, the IC50 is reported as 25 nM.
In the case of CNS(=O)(=O)c1ccc(N(C)C)c(Nc2ncnc3cc[nH]c23)c1, the IC50 is reported as 25 nM.

Molecular target: T1, Serine/threonine-protein kinase TNNI3K
Test: Inhibition of human myc-tagged TNNI3K autophosphorylation overexpressed in HEKMSR2 cells incubated for 30 mins by time resolved fluorescence assay
Type: cell-based
Details: not given
For CNS(=O)(=O)c1ccc(OCC(F)(F)F)c(Nc2ncnc3cc(OC)cc(OC)c23)c1, the IC50 was 13 nM.
CNS(=O)(=O)c1ccc(OCC(F)(F)F)c(Nc2ncnc3cc(OCCCN4CCOCC4)ccc23)c1 gave an IC50 of 79 nM.
CNS(=O)(=O)c1ccc(N(C)C)c(Nc2ncnc3ccn(C)c23)c1 gave an IC50 of 50 nM.
With CNS(=O)(=O)c1ccc(OCC(F)(F)F)c(Nc2ncnc3cc(OC)c(OC)c(OC)c23)c1 the IC50 was 63 nM.
In the case of CNS(=O)(=O)c1ccc(OCC(F)(F)F)c(Nc2ncnc3cc(OCCCOC)ccc23)c1, the IC50 is reported as 320 nM.
For CNS(=O)(=O)c1ccc(OCC(F)(F)F)c(Nc2ncnc3cc(OC)c(OC)cc23)c1, the IC50 was 160 nM.
Molecule CNS(=O)(=O)c1ccc(N(C)C)c(Nc2ncnc3cc(OC)cc(OC)c23)c1 has an IC50 of 10 nM.
CNS(=O)(=O)c1ccc(N(C)C)c(Nc2ncnc3cc(OCCCOC)ccc23)c1 gave an IC50 of 25 nM.
CNS(=O)(=O)c1ccc(N(C)C)c(Nc2ncnc3cc(OCCCN4CCOCC4)ccc23)c1 showed an IC50 of 25 nM.
For CCOc1cc2ncnc(Nc3cc(S(=O)(=O)NC)ccc3OCC(F)(F)F)c2cc1OC, the IC50 was 50 nM.
Molecule CNS(=O)(=O)c1ccc(N(C)C)c(Nc2ncnc3cc(OC)c(OC)cc23)c1 has an IC50 of 100 nM.
For CNS(=O)(=O)c1ccc(N(C)C)c(Nc2ncnc3cc[nH]c23)c1, the IC50 was 500 nM.
